This is an account of results in patent publication US20200181101A1, “BENZAMIDE INHIBITORS OF BACTERIAL LIPOPROTEIN SIGNAL PEPTIDASE” (The Scripps Research Institute, priority 2017, published 2020).

One assay deals with E. coli (ATCC25922). The experiment in a line: Bacteria growth assay, E. coli ATCC25922. The class given is cell-based. As to the method: (§1) Effect of compounds on bacterial growth was measured using the method described previously with slight modifications^[1]. Colony suspension method was used to prepare bacteria suspension using McFarland Standard 0.5 to adjust the turbidity. Cells were introduced to two-fold serial dilutions of compound in a final volume of 105 μL with 5% DMSO. Mueller-Hinton broth (MH) or LB broth was used for E. coli ATCC25922 or E. coli DW37 and YX23, respectively. Plates were incubated at 37° C., and the OD600 was measured using a PerkinElmer EnVision plate reader after gentle shaking. Mutant E. coli (DW37 and YX23) were previously described.^[2] Globomycin was used as a positive control and the concentration-response curves of globomycin on bacteria growth (E. coli ATCC25922) is shown below (error bar: SD).

Another assay concerns the target T1, Lsp from E. coli (Escherichia coli, UniProt P00804).
T1 construct: The full-length Lsp clone from E. coli (residues 1-164); His6 with enterokinase cleavage site (pET19b) (N); made in house; host or cells: E. coli Lemo21 (DE3), pET19b vector
As to the kind of experiment: Lsp FRET activity assay, IC50 determination. The class given is biochemical. The following applies: for Hill constant: [S]=50 μM, [Lsp]=100 nM. How it is done:
[…] […] 50 μM Lsp FRET substrate was subsequently added and the rate of substrate hydrolysis was measured by increase in fluorescence (excitation 355 nm, emission 495 nm) in 96-well plates on a PerkinElmer EnVision plate reader or Tecan Safire 2 microplate reader. Michaelis-Menten constants and […] were determined using GraphPad Prism software (GraphPad, Inc.).

The test system of assay [1] is E. coli YX23. As to the kind of experiment: Bacteria growth assay, Lsp-inhibition resistant mutant YX23. The class given is cell-based. Further details: dose or concentration left out as unconfirmed. The settings on record: OD600 at 24 h. How it is done: as §1
The test system of a further assay is E. coli DW37. As to the kind of experiment: Bacteria growth assay, isogenic parent strain DW37. It counts as cell-based. Set-up: dose or concentration left out as unconfirmed. The following applies: OD600 at 10 h. As to the method:
as §1

Assay [2] concerns E. coli YX23. The following applies: literature [14]; cited from earlier work.
Where [3] appears, read: FRET-based assay, [Lsp] = 100 nM, mean (± SD), read-out: IC50.
[4] abbreviates: Table 7, linker variation, E = 100 nM, read-out: IC50.

pIC50: −log10 of the molar value. “Also recorded” adds a separate entry of the source. Read-outs that look alike come from different tables or passages of the source.

T1 sequence (P00804 whole entry, the tested form may be a part): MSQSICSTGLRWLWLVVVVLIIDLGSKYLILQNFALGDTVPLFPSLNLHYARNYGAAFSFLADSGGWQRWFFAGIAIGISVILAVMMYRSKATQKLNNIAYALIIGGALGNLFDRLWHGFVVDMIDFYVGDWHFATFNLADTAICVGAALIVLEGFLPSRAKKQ

The pIC50 is the IC50 on a negative log10 scale, so that one unit is a factor of ten. For `COc1cc(C(=O)Nc2nnc(C3CCCCC3)s2)c([N+](=O)[O-])cc1OC` [1c, N-(5-cyclohexyl-1,3,4-thiadiazol-2-yl)-4,5-dimethoxy-2-nitrobenzamide], the “bacterial growth, in words” value in the assay with E. coli (ATCC25922) (in combination with PMBN 8 mg/L) was “did not inhibit the bacterial growth”. Moreover, the “potency against Lsp, in words (SAR)” value at Lsp from E. coli is listed as “ablated the potency”. The negative-log IC50 (pIC50) at Lsp from E. coli (FRET-based assay, [Lsp] = 400 nM, mean (± SD), read-out: IC50) is under 3.40.
Regarding `CCC(CC)c1nnc(NC(=O)c2cc(OC)c(OC3CCCC3)cc2[N+](=O)[O-])s1` [1j, 4-(cyclopentyloxy)-5-methoxy-2-nitro-N-(5-(pentan-3-yl)-1,3,4-thiadiazol-2-yl)benzamide], in the assay on E. coli YX23 [1], the “growth of YX23” value is “resistant; also recorded: did not inhibit the growth”. The “bacterial growth, in words” value with E. coli (ATCC25922) (cultures of E. coli) is “inhibits bacterial growth”. The “growth of DW37” value with E. coli DW37 is “inhibited the growth”. In addition, at Lsp from E. coli, the “effect on cleaved substrate fluorescence” value is “no effect” and the Hill constant result is “approximately 1”. The pIC50 at Lsp from E. coli (read-out: IC50) is 7.00.
In the case of `CCCC1OC(=O)C(C)CC(C)CCCCC(=O)CCCC(CC)/C=C/C=C(\COC)CCC(O)C(O)CC(O)CNC1=O` (centres unmarked) [myxovirescin], the “resistance of YX23” value in the assay with E. coli YX23 [2] is on record as “resistant”.
For `CCC(CC)c1nnc(NC(=O)c2cc(OC)c(OC(C)C)cc2[N+](=O)[O-])s1` [1i, 4-isopropoxy-5-methoxy-2-nitro-N-(5-(pentan-3-yl)-1,3,4-thiadiazol-2-yl)benzamide], at Lsp from E. coli, the “effect on cleaved substrate fluorescence” value is listed as “no effect” and the Hill constant result is listed as “approximately 1”. Further, the pIC50 at Lsp from E. coli (setting [3]) was 6.68.
As for `CCC(CC)c1nnc(NC(=O)c2ccccc2CC(=O)OC)s1` [Sk056-82-1], at Lsp from E. coli (Table 4, read-out: IC50), the pIC50 is 4.68.
On to `CCC(CC)c1nnc(NC(=O)c2ccc(OC)cc2[N+](=O)[O-])s1` [Sk052-146-2], for which, on Lsp from E. coli (Table 4, read-out: IC50), the pIC50 was 5.66.
Consider `CCC(CC)c1nnc(NC(=O)c2cc(Cl)c(SC3CCCC3)cc2[N+](=O)[O-])s1` [Sk056-22-1], for which the pIC50 on Lsp from E. coli (Table 5, [Lsp] = 20 nM, read-out: IC50) is 7.70.
In the case of `CCC(CC)c1nnc(NC(=O)c2ccc(NC(C)=O)cc2[N+](=O)[O-])s1` [Sk054-112-2], at Lsp from E. coli (Table 4, read-out: IC50), the pIC50 was 3.80.
On to `CCCCCCC1OC(=O)CNC(=O)C(C(C)O)NC(=O)C(CO)NC(=O)C(C(C)CC)NC(=O)C(CC(C)C)N(C)C(=O)C1C` (centres unmarked) [Globomycin, globomycin], for which the “resistance of YX23” value in the assay on E. coli YX23 [2] is on record as “resistant”.
At Lsp from E. coli, `CCC(CC)c1nnc(NC(=O)c2ccc(OS(=O)(=O)F)cc2O)s1` [Sk056-50-4] gave a pIC50 of 3.54.
As to `CCC(CC)c1nnc(NC(=O)c2cc(Cl)c(OCCCNC(=O)OC(C)(C)C)cc2[N+](=O)[O-])s1` [Sk061-80-1], the pIC50 at Lsp from E. coli (setting [4]) is 5.77.
In the case of `CCC(CC)c1nnc(NC(=O)c2ccc(C(F)(F)F)cc2[N+](=O)[O-])s1` [Z123635394], the pIC50 at Lsp from E. coli (Table 4, read-out: IC50) is 5.03.
Same read-out and setting: as for `CCC(CC)c1nnc(NC(=O)c2ccc(F)cc2[N+](=O)[O-])s1` [Sk054-91-3], the figure is 5.14.
As for `CCCC(CCC)c1nnc(NC(=O)c2cc(OC)c(OC)cc2[N+](=O)[O-])s1` [Sk052-88-1], the pIC50 on Lsp from E. coli (Table 2, variation of R3, read-out: IC50) is 5.96.
In the case of `CCC(CC)c1nnc(NC(=O)c2cc(Cl)c(OC3CCCN(C(=O)OC(C)(C)C)C3)cc2[N+](=O)[O-])s1` (centres unmarked) [Sk061-80-5], the pIC50 at Lsp from E. coli (setting [4]) was 6.08.
Regarding `CCC(CC)c1nnc(NC(=O)c2ccc(OS(=O)(=O)F)cc2[N+](=O)[O-])s1` [Sk056-45-1], at Lsp from E. coli, the pIC50 was 4.34.
Regarding `CCCCCCOc1cc([N+](=O)[O-])c(C(=O)Nc2nnc(C(CC)CC)s2)cc1OC` [1h, 4-(hexyloxy)-5-methoxy-2-nitro-N-(5-(pentan-3-yl)-1,3,4-thiadiazol-2-y)benzamide], at Lsp from E. coli (setting [3]), the pIC50 was 6.96.
